Experimental data reported in patent publication US20090041687A1 (priority 2005, published 2009).
Structures can show the parent of a compound that is named as a salt.

Each compound was assayed against T1, μ-opioid receptor (Homo sapiens, UniProt P35372) (assay: μ-opioid receptor binding assay and GTP-recruitment assay (screening for antagonists)). Settings: [3H] DAMGO binding and DAMGO/GTP-Eu recruitment, membranes from CHO cells overexpressing the receptor; result in words.
T1 construct: purchased Perkin Elmer; host or cells: CHO cells (recombinant overexpression; membrane preparation)
Type: biochemical
Protocol: […] DAMGO (Amersham) in 50 mM Tris HCl pH 7.4 (Sigma), 10 mM MgCl2 (Sigma) and 0.2% BSA (Sigma) in the presence of the negative control DMSO (Fluka) or the test compounds. The incubation mixture was transferred to filter plates (Perkin Elmer), the liquid aspirated through the application of a vacuum from the bottom and the plate washed twice with PBS (Invitrogen). The plate was allowed to dry, 35 μl of scintillation cocktail (Ultima Gold, Perkin Elmer) added, sealed and placed on a TopCount (Packard) for scintillation counting.
[…] The incubation mixture was transferred to filter plates (Perkin Elmer), the liquid aspirated through the application of a vacuum from the bottom and the plate washed twice with PBS (Invitrogen) and allowed to dry. Plates were read in an Analyst reader (LJL Biosystems).

T1 sequence (P35372 whole entry): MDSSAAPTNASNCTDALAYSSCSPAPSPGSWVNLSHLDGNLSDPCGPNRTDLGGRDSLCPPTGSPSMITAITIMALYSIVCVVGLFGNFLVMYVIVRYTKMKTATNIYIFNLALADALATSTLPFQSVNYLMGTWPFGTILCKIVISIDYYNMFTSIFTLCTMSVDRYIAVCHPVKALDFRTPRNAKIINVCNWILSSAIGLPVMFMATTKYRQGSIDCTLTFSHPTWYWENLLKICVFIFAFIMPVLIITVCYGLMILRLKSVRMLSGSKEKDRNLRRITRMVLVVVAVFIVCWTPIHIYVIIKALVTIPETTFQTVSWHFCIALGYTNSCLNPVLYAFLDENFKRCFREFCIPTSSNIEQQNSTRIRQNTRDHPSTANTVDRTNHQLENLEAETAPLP

Structure (SMILES)	identified as opioid receptor antagonist in the screening
O=c1c(O)c(-c2ccc(O)c(O)c2)oc2cc(O)c(O)c(O)c12 [Quercetagetin]	opioid receptor antagonists
COc1c(O)cc(C)c(O)c1OC [2,3-Dimethoxy-5-methylhydroquinone]	opioid receptor antagonists
CC(C)=CCC(OC(=O)C=C(C)C)C1=CC(=O)c2c(O)ccc(O)c2C1=O (stereo not drawn) [beta,beta-Dimethylacryl shikonin]	opioid receptor antagonists
COC1=C(OC)C(=O)C=CC1=O [2,3-Dimethoxy-1,4-benzoquinone]	opioid receptor antagonists
O=C(Oc1cc(O)cc2c1C[C@@H](OC(=O)c1cc(O)c(O)c(O)c1)[C@@H](c1cc(O)c(O)c(O)c1)O2)c1cc(O)c(O)c(O)c1 [Epigallocatechin 3,5-Digallate]	opioid receptor antagonists
O=c1c(-c2cc(O)c(O)c(O)c2)coc2cc(O)c(O)c(O)c12 [Irigenol ex Iris spp]	opioid receptor antagonists
COc1c(O)ccc(O)c1OC [2,3-Dimethoxyhydroquinone]	opioid receptor antagonists
Oc1cc(O)c2cc(O)c(-c3cc(O)c(O)c(O)c3)[o+]c2c1 [Delphinidin chloride]	opioid receptor antagonists
C/C1=C\CCC(C)(O)/C=C/C(C(C)C)CC/C(C)=C/CC1 (stereo not shown) [Isocembrol]	opioid receptor antagonists
O=C(/C=C/c1ccc(O)c(O)c1)c1ccc(O)c(O)c1O [2′,3′,4′,3,4-Pentahydroxychalcone]	opioid receptor antagonists
O=C1/C(=C/c2ccc(O)c(O)c2)Oc2cc(O)cc(O)c21 [Aureusidin]	opioid receptor antagonists
CC(=O)Oc1cc(-c2coc3cc(OC(C)=O)c(OC(C)=O)c(OC(C)=O)c3c2=O)cc(OC(C)=O)c1OC(C)=O [Irigenol Hexaacetate]	opioid receptor antagonists
O=c1c(O)c(-c2cc(O)c(O)c(O)c2)oc2cc(O)ccc12 [Robinetin]	opioid receptor antagonists
COC1=C(OC)C(=O)C(C)=CC1=O [2,3-Dimethoxy-5-methyl-1,4-benzoquinone]	opioid receptor antagonists

Same assay, conditions: [3H] DAMGO binding and DAMGO/GTP-Eu recruitment, membranes from CHO cells overexpressing the receptor; result in words; Hydrochloride

Structure (SMILES)	identified as opioid receptor antagonist in the screening
COc1cc2c3cc1Oc1c(OC)c(OC)cc4c1[C@@H](Cc1cccc(c1)Oc1ccc(c(O)c1)C[C@@H]3N(C)CC2)N(C)CC4 [Berbamine Hydrochloride]	opioid receptor antagonists

The compounds below were run on human primary melanocytes from skin type IV (assay: total intracellular melanin production in human primary melanocytes (depigmentation)). Settings: Naloxone 1 × 10^−4 M, 4 days, absorption of cell lysates at 475 nm, duplicate.
Type: cell-based
Protocol: Normal human melanocytes were cultured from freshly excised foreskin of skin type IV and treated with Dispase (ready-to-use, Roche) overnight at 4° C. Melanocytes dissociated from the epidermis were plated in culture flasks at high density using Melanocyte Growth Medium M2 (Promocell) supplemented with the corresponding growth factors (Promocell). These primary cells were cultivated under 100% humidity and 5% CO2 at 37° C. At the second passage, melanocytes were transferred to 6 well plates and allowed to reach 80% surface confluence.
Medium was renewed on day two of the experiment. Cells were harvested, counted and lysed in 1N NaOH using vigorous vortexing and a 30 minute incubation in an ultrasound bath. Melanin content was determined by measuring the absorption of cell lysates at 475 nm. Values were calibrated against a standard curve based on synthetic melanin (Sigma). The amount of melanin per 1 million cells is reported. Each treatment was run in duplicate.

Structure (SMILES)	Melanin (μg/10^6 cells)
C=CCN1CC[C@]23c4c5ccc(O)c4O[C@H]2C(=O)CC[C@@]3(O)[C@H]1C5 [Naloxone]	1.05 μg/10^6 cells

Same assay, conditions: Naloxone 1 × 10^−4 M, 4 days, versus control

Structure (SMILES)	Reduction of mean melanin content
C=CCN1CC[C@]23c4c5ccc(O)c4O[C@H]2C(=O)CC[C@@]3(O)[C@H]1C5 [Naloxone]	86%

Same assay, conditions: Naloxone 5 × 10^−6 M, 4 days, versus control

Structure (SMILES)	Reduction of mean melanin content
C=CCN1CC[C@]23c4c5ccc(O)c4O[C@H]2C(=O)CC[C@@]3(O)[C@H]1C5 [Naloxone]	78%

Same assay, conditions: result in words

Structure (SMILES)	intracellular melanin content compared to the control
C=CCN1CC[C@]23c4c5ccc(O)c4O[C@H]2C(=O)CC[C@@]3(O)[C@H]1C5 [Naloxone]	dramatically reduces intracellular melanin content
